# Source: US20240308987A1, “SMALL MOLECULE INHIBITOR AGAINST NASOPHARYNGEAL CARCINOMA, PREPARATION METHOD AND APPLICATION THEREOF” (SHENZHEN BAY LABORATORY, priority 2021, published 2024)
# System: C666-1 cells
# Assay: C666-1 Cell Viability Assay (Resazurin cytotoxicity test)
# Assay type: cell-based
# Settings: Homo sapiens, C6661, EB virus-positive C666-1 cells, 72 hours treatment, 100-0.78 micromole/L, read-out: Inhibitory Rate
# In short: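 EBV-positive nasopharyngeal carcinoma C666-1 cells, 5×10^3 per well, were grown 24 h, then exposed to compound for 72 h at 37 °C (8-point two-fold dilutions, final 100–0.78 µM). Viability was read by resazurin reduction fluorescence after 3 h; EC50 came from the fitted inhibition curve.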
row,SMILES,EC50
1,"COC(=O)c1cccc(N2CC(Oc3ccc(/C=C/c4cccnc4)cc3)C2)c1-c1ccccc1 [Example 36, methyl (E)-6-(3-(4-(2-(pyridin-3-yl)vinyl)phenoxy)azetidin-1-yl)-[1,1′-biphenyl]-2-carboxylate]",10 to 50 µM
2,"O=C(O)c1cccc(N2CC(Oc3ccc(/C=C/c4cccnc4)cc3)C2)c1-c1ccccc1 [Example 36a, (E)-6-(3-(4-(2-(pyridin-3-yl)vinyl)phenoxy)azetidin-1-yl)-[1,1′-biphenyl]-2-carboxylic acid]",10 to 50 µM
3,"O=C(NO)c1cccc(N2CC(Oc3ccc(/C=C/c4cccnc4)cc3)C2)c1-c1ccccc1 [Example 36b, (E)-N-hydroxy-6-(3-(4-(2-(pyridin-3-yl)vinyl)phenoxy)azetidin-1-yl)-[1,1′-biphenyl]-2-carboxamide]",< 1 µM
4,"COC(=O)c1cccc(N2CC(Oc3ccc(NC(=O)Nc4cccc(C(F)(F)F)c4)cc3)C2)c1-c1cccc(Cl)c1 [Example 37, methyl 3′-chloro-6-(3-(4-(3-(3-(trifluoromethyl)phenyl)ureido)phenoxy)azetidin-1-yl)-[1,1′-biphenyl]-2-carboxylate]",10 to 50 µM
5,"O=C(Nc1ccc(OC2CN(c3cccc(C(=O)O)c3-c3cccc(Cl)c3)C2)cc1)Nc1cccc(C(F)(F)F)c1 [Example 37a, 3′-chloro-6-(3-(4-(3-(3-(trifluoromethyl)phenyl)ureido)phenoxy)azetidin-1-yl)-[1,1′-biphenyl]-2-carboxylic acid]",> 50 µM
6,"COC(=O)c1cccc(N2CC(Oc3ccc(CNc4cccnc4)cc3)C2)c1-c1cccc(Cl)c1 [Example 38, methyl 3′-chloro-6-(3-(4-((pyridin-3-ylamino)methyl)phenoxy)azetidin-1-yl)-[1,1′-biphenyl]-2-carboxylate]",10 to 50 µM
7,"O=C(O)c1cccc(N2CC(Oc3ccc(CNc4cccnc4)cc3)C2)c1-c1cccc(Cl)c1 [Example 38a, 3′-chloro-6-(3-(4-((pyridin-3-ylamino)methyl)phenoxy)azetidin-1-yl)-[1,1′-biphenyl]-2-carboxylic acid]",10 to 50 µM
8,"O=C(NO)c1cccc(N2CC(Oc3ccc(CNc4cccnc4)cc3)C2)c1-c1cccc(Cl)c1 [Example 38b, 3′-chloro-N-hydroxy-6-(3-(4-((pyridin-3-ylamino)methyl)phenoxy)azetidin-1-yl)-[1,1′-biphenyl]-2-carboxamide]",< 1 µM
9,"COC(=O)c1cccc(N2CC(Oc3ccc(CNc4cccnc4)cc3)C2)c1-c1ccccc1 [Example 39, methyl 6-(3-(4-((pyridin-3-ylamino)methyl)phenoxy)azetidin-1-yl)-[1,1′-biphenyl]-2-carboxylate]",> 50 µM
10,"O=C(O)c1cccc(N2CC(Oc3ccc(CNc4cccnc4)cc3)C2)c1-c1ccccc1 [Example 39a, 6-(3-(4-((pyridin-3-ylamino)methyl)phenoxy)azetidin-1-yl)-[1,1′-biphenyl]-2-carboxylic acid]",> 50 µM
11,"O=C(NO)c1cccc(N2CC(Oc3ccc(CNc4cccnc4)cc3)C2)c1-c1ccccc1 [Example 39b, N-hydroxy-6-(3-(4-((pyridin-3-ylamino)methyl)phenoxy)azetidin-1-yl)-[1,1′-biphenyl]-2-carboxamide]",< 1 µM
12,"COC(=O)c1cccc(N2CC(Oc3ccc(CC(=O)Nc4cccnc4)cc3)C2)c1-c1ccccc1 [Example 40, methyl 6-(3-(4-(2-oxo-2-(pyridin-3-ylamino)ethyl)phenoxy)azetidin-1-yl)-[1,1′-biphenyl]-2-carboxylate]",< 1 µM
13,"O=C(Cc1ccc(OC2CN(c3cccc(C(=O)O)c3-c3ccccc3)C2)cc1)Nc1cccnc1 [Example 40a, 6-(3-(4-(2-oxo-2-(pyridin-3-ylamino)ethyl)phenoxy)azetidin-1-yl)-[1,1′-biphenyl]-2-carboxylic acid]",1 to 10 µM
14,"O=C(Cc1ccc(OC2CN(c3cccc(C(=O)NO)c3-c3ccccc3)C2)cc1)Nc1cccnc1 [Example 40b, N-hydroxy-6-(3-(4-(2-oxo-2-(pyridin-3-ylamino)ethyl)phenoxy)azetidin-1-yl)-[1,1′-biphenyl]-2-carboxamide]",< 1 µM
15,"CNC(=O)c1cccc(N2CC(Oc3ccc(CC(=O)Nc4cccnc4)cc3)C2)c1-c1ccccc1 [Example 40c, N-methyl-6-(3-(4-(2-oxo-2-(pyridin-3-ylamino)ethyl)phenoxy)azetidin-1-yl)-[1,1′-biphenyl]-2-carboxamide]",1 to 10 µM
16,"COC(=O)c1cccc(N2CC(Oc3ccc(NC(=O)Nc4cccnc4)cc3)C2)c1-c1cccc(Cl)c1 [Example 41, methyl 3′-chloro-6-(3-(4-(3-(pyridin-3-yl)ureido)phenoxy)azetidin-1-yl)-[1,1′-biphenyl]-2-carboxylate]",< 1 µM
17,"O=C(Nc1ccc(OC2CN(c3cccc(C(=O)O)c3-c3cccc(Cl)c3)C2)cc1)Nc1cccnc1 [Example 41a, 3′-chloro-6-(3-(4-(3-(pyridin-3-yl)ureido)phenoxy)azetidin-1-yl)-[1,1′-biphenyl]-2-carboxylic acid]",1 to 10 µM
18,"O=C(Nc1ccc(OC2CN(c3cccc(C(=O)NO)c3-c3cccc(Cl)c3)C2)cc1)Nc1cccnc1 [Example 41b, 3′-chloro-N-hydroxy-6-(3-(4-(3-(pyridin-3-yl)ureido)phenoxy)azetidin-1-yl)-[1,1′-biphenyl]-2-carboxamide]",< 1 µM

row,SMILES,EC50
1,"COC(=O)c1cccc(N2CC(Oc3ccc(NC(=O)Nc4cccnc4)cc3)C2)c1-c1ccccc1 [Example 42, methyl 6-(3-(4-(3-(pyridin-3-yl)ureido)phenoxy)azetidin-1-yl)-[1,1′-biphenyl]-2-carboxylate]",< 1 µM
2,"O=C(Nc1ccc(OC2CN(c3cccc(C(=O)O)c3-c3ccccc3)C2)cc1)Nc1cccnc1 [Example 42a, 6-(3-(4-(3-(pyridin-3-yl)ureido)phenoxy)azetidin-1-yl)-[1,1′-biphenyl]-2-carboxylic acid]",1 to 10 µM
3,"O=C(Nc1ccc(OC2CN(c3cccc(C(=O)NO)c3-c3ccccc3)C2)cc1)Nc1cccnc1 [Example 42b, N-hydroxy-6-(3-(4-(3-(pyridin-3-yl)ureido)phenoxy)azetidin-1-yl)-[1,1′-biphenyl]-2-carboxamide]",< 1 µM
4,"CNC(=O)c1cccc(N2CC(Oc3ccc(NC(=O)Nc4cccnc4)cc3)C2)c1-c1ccccc1 [Example 42c, N-methyl-6-(3-(4-(3-(pyridin-3-yl)ureido)phenoxy)azetidin-1-yl)-[1,1′-biphenyl]-2-carboxamide]",< 1 µM
5,"COC(=O)c1cccc(N2CC(Oc3ccc(CC(=O)Nc4cccnc4)cc3)C2)c1 [Example 43, methyl 3-(3-(4-(2-oxo-2-(pyridin-3-ylamino)ethyl)phenoxy)azetidin-1-yl) benzoate]",1 to 10 µM
6,"O=C(Cc1ccc(OC2CN(c3cccc(C(=O)O)c3)C2)cc1)Nc1cccnc1 [Example 43a, 3-(3-(4-(2-oxo-2-(pyridin-3-ylamino)ethyl)phenoxy)azetidin-1-yl) benzoic acid]",1 to 10 µM
7,"O=C(Cc1ccc(OC2CN(c3cccc(C(=O)NO)c3)C2)cc1)Nc1cccnc1 [Example 43b, N-hydroxy-3-(3-(4-(2-oxo-2-(pyridin-3-ylamino)ethyl)phenoxy)azetidin-1-yl) benzamide]",< 1 µM
8,"O=C(Cc1ccc(OC2CN(c3ccccc3)C2)cc1)Nc1cccnc1 [Example 43c, 2-(4-((1-phenylazetidin-3-yl)oxy)phenyl)-N-(pyridin-3-yl) acetamide]",10 to 50 µM
9,"COC(=O)c1cccc(N2CC(Oc3ccc(CC(=O)Nc4cccnc4)cc3)C2)c1-c1ccc2cc[nH]c2c1 [Example 44, methyl 2-(1H-indol-6-yl)-3-(3-(4-(2-oxo-2-(pyridin-3-ylamino)ethyl)phenoxy)azetidin-1-yl) benzoate]",< 1 µM
10,"O=C(Cc1ccc(OC2CN(c3cccc(C(=O)O)c3-c3ccc4cc[nH]c4c3)C2)cc1)Nc1cccnc1 [Example 44a, 2-(1H-indol-6-yl)-3-(3-(4-(2-oxo-2-(pyridin-3-ylamino)ethyl)phenoxy)azetidin-1-yl) benzoic acid]",1 to 10 µM
11,"COC(=O)c1cccc(N2CC(Oc3ccc(NC(=O)Cc4cccnc4)cc3)C2)c1-c1ccccc1 [Example 45, methyl 6-(3-(4-(2-(pyridin-3-yl)acetamido)phenoxy)azetidin-1-yl)-[1,1′-biphenyl]-2-carboxylate]",< 1 µM
12,"O=C(Cc1cccnc1)Nc1ccc(OC2CN(c3cccc(C(=O)O)c3-c3ccccc3)C2)cc1 [Example 45a, 6-(3-(4-(2-(pyridin-3-yl)acetamido)phenoxy)azetidin-1-yl)-[1,1′-biphenyl]-2-carboxylic acid]",10 to 50 µM
13,"O=C(Cc1cccnc1)Nc1ccc(OC2CN(c3cccc(C(=O)NO)c3-c3ccccc3)C2)cc1 [Example 45b, N-hydroxy-6-(3-(4-(2-(pyridine-3-yl)acetamido)phenoxy)azetidin-1-yl)-[1,1′-biphenyl]-2-carboxamide]",< 1 µM
14,"CNC(=O)c1cccc(N2CC(Oc3ccc(NC(=O)Cc4cccnc4)cc3)C2)c1-c1ccccc1 [Example 45c, N-methyl-6-(3-(4-(2-(pyridin-3-yl)acetamido)phenoxy)azetidin-1-yl)-[1,1′-biphenyl]-2-carboxamide]",< 1 µM
15,"CONC(=O)c1cccc(N2CC(Oc3ccc(NC(=O)Cc4cccnc4)cc3)C2)c1-c1ccccc1 [Example 45d, N-methoxy-6-(3-(4-(2-(pyridin-3-yl)acetamido)phenoxy)azetidin-1-yl)-[1,1′-biphenyl]-2-carboxamide]",10 to 50 µM
16,"O=C(Cc1cccnc1)Nc1ccc(OC2CN(c3ccccc3-c3ccccc3)C2)cc1 [Example 45e, N-(4-((1-([1,1′-biphenyl]-2-yl)azetidin-3-yl)oxy)phenyl)-2-(pyridin-3-yl)acetamide]",10 to 50 µM
17,"COC(=O)c1cccc(N2CC(Oc3ccc(NC(=O)Nc4cncc(F)c4)cc3)C2)c1-n1cccc1 [Example 46, methyl 3-(3-(4-(3-(5-fluoropyridin-3-yl)ureido)phenoxy)azetidin-1-yl)-2-(1H-pyrrol-1-yl) benzoate]",1 to 10 µM
